Data published in patent US9995734B2, “Human T cell line assay for evaluating the immunologic identity of glatiramer acetate preparations” (Mylan Inc., priority 2013, dated 2018).

Tests used:
[1] = tested on: Donor 3 GMA T-cell lines (165-B5G, 165-C4G, 165-C5G, 165-E9G, 165-F5G, 165-F10G); experiment: MHC DR restriction testing (ATP proliferation with autologous and partially HLA-DR matched APC), Donor 3 GMA T-cell lines; format: cell-based, human; details: 20 μg/mL
Method: MHC DR restriction testing of cell lines was carried out by measuring the proliferation response of the cell lines as described above in the presence of an array of APC selected based on the known HLA-DR loci of the original PBMC donor for the cell line tested, including autologous APC (B-LCL). The donors used are described in Table 2.
To define the MHC molecule used to present antigen to GA specific T cell lines, GA specific responses were measured in the presence of autologous APC and in the presence of APC matching one of the T cell donor's HLA-DR alleles. Therefore at least 3 APC were used in each experiment: autologous APC, APC matching DR allele 1 but not allele 2 and a third APC matching allele 2 but not allele 1. In some experiments a fourth APC B-LCL was used. A no antigen negative control was used. APC were inactivated by incubation with 50 ug/mL mitomycin C. Following inactivation, cells were washed three times to remove mitomycin C and suspended in X-VIVO 15 medium at 1×10^6 cells per mL. GA was added to the cell suspension to a final concentration of 20-60 μg/mL. The cells were incubated with antigen for 1 hour at 37° C. to allow antigen uptake and binding. The cell suspension was then centrifuged to pellet the cells and the cell pellet was washed once with medium. APC were adjusted to 2×10^5 cells per mL in X-VIVO 15 medium and added to opaque 96-well plates at 100 μL per well. T-cell suspensions of 2-4×10^5 cells per mL (unless otherwise specified) were added to the 96-well plates at 100 μL per well and the cultures incubated 4 days before measuring cell numbers using CellTiter Glo® (to evaluate proliferation).
Alternatively, APC were not pulsed. Instead, each well contained 10 ug/mL antigen, 50 μl APC and 100 μL of T cells.
After incubating for 4 days at 37° C. (5% CO2), 100 μL were removed from each well, combined with 100 μL CellTiterGlo reagent, and luminescence was measured using a Packard Fusion. Results were expressed in relative light units (RLU).
As described in the Methods, T-cell lines were tested for MHC restriction by measuring proliferation following incubation with APC. Mitomycin-treated autologous APC, and test APC, e.g., from donors having at least one HLA-DR match with the original PBMC donor were employed. The values in the data tables below are in RLU.
Donor 3 T-cell line 165-B5G was assayed for proliferation, using mitomycin-treated APC from Donors 3, 5, and 6 that had been incubated in the presence or the absence of 20 μg/mL GMA. T-cell line 165-B5G had been restimulated six times (not including the initial stimulation) with antigen before the MHC restriction assay was carried out. The data, shown in Table 62 and FIG. 9A, indicate that 165-B5G is restricted by HLA-DRβ1*11.
Donor 3 T-cell line 165-C4G was assayed for proliferation, using mitomycin-treated APC from Donors 3, 5, and 7 that had been incubated in the presence or the absence of 20 μg/mL GMA. T-cell line 165-C4G had been restimulated five times (not including the initial stimulation) with antigen before the MHC restriction assay was carried out. The data, shown in Table 63 and FIG. 9B, indicate that 165-C4G is restricted by HLA-DRβ1*11.
Donor 3 T-cell line 165-05G was assayed for proliferation, using mitomycin-treated APC from Donors 3, 5, and 6 that had been incubated in the presence or the absence of 20 μg/mL GMA. T-cell line 165-05G had been restimulated four times (not including the initial stimulation) with antigen before the MHC restriction assay was carried out. The data, shown in Table 64 and FIG. 10A, indicate that 165-05G is restricted by HLA-DRβ1*1501.
Donor 3 T-cell line 165-E9G was assayed for proliferation, using mitomycin-treated APC from Donors 3, 5, and 6 that had been incubated in the presence or the absence of 20 μg/mL GMA. T-cell line 165-E9G had been restimulated four times (not including the initial stimulation) with antigen before the MHC restriction assay was carried out. […]

[2] = tested on: Donor 2 Human T-Cell Lines; experiment: BrdU uptake proliferation assay, Donor 2 T-cell lines stimulated with GMA; format: cell-based; details: 100 μg/mL GMA; for BrdU uptake: Day 13
Method: Proliferation was evaluated by measuring ATP content using a luminescent method (CellTiter Glo Luminescent Cell Viability Assay, Promega, Madison, Wis., cat. #G7571) or by measuring BrdU uptake by ELISA (Millipore cat. #2752), in both cases following kit instructions. A split well format was used. Cells in each well were resuspended and 65 μl transferred to the wells of each of two new U-bottom 96-well plates, to generate the replicate plates. […] Therefore, all three plates received autologous APC (PBMC) treated with mitomycin C to prevent cell division. […] The latter two plates were incubated for 3 days at 37° C., 6% CO2 before adding CellTiter Glo or BrdU and measuring signal. IL-2 was added at 10 U/mL to the original 96-well plate for expansion on Day 17. For subsequent screenings, mitomycin-treated EBV-transformed autologous B-LCL (2×10^5 to 5×10^5 cells/mL) were used as APC.
PBMC were obtained from a normal, healthy, donor having MHC Class II HLA-DRβ1 04:01, 04:04 (Donor 2). […] Nine presumptive GA-specific human T-cell lines were selected for expansion and further analysis based on an increase in the OD of the GA-stimulated test sample of at least 50% relative to an unstimulated control sample.

glatiramer acetate [GMA]
Proliferation with antigen-incubated APC ([1]; T-cell line 165-B5G, B-LCL Donor 3 (Autologous) DRβ1*1501/DRβ1*11): 4776 RLU | Proliferation with antigen-incubated APC ([1]; T-cell line 165-B5G, B-LCL Donor 5 DRβ1*01/DRβ1*11): 5450 RLU | Proliferation with antigen-incubated APC ([1]; T-cell line 165-B5G, B-LCL Donor 6 DRβ1*1501/DRβ1*13): 2360 RLU | Proliferation with antigen-incubated APC ([1]; T-cell line 165-C4G, B-LCL Donor 3 (Autologous) DRβ1*1501/DRβ1*11): 48711 RLU | Proliferation with antigen-incubated APC ([1]; T-cell line 165-C4G, B-LCL Donor 5 DRβ1*01/DRβ1*11): 41833 RLU | Proliferation with antigen-incubated APC ([1]; T-cell line 165-C4G, B-LCL Donor 7 DRβ1*1501/DRβ1*03): 4870 RLU | Proliferation with antigen-incubated APC ([1]; T-cell line 165-C5G, B-LCL Donor 3 (Autologous) DRβ1*1501/DRβ1*11): 16461 RLU | Proliferation with antigen-incubated APC ([1]; T-cell line 165-C5G, B-LCL Donor 5 DRβ1*01/DRβ1*11): 9825 RLU | Proliferation with antigen-incubated APC ([1]; T-cell line 165-C5G, B-LCL Donor 6 DRβ1*1501/DRβ1*13): 31717 RLU | Proliferation with antigen-incubated APC ([1]; T-cell line 165-E9G, B-LCL Donor 3 (Autologous) DRβ1*1501/DRβ1*11): 5452 RLU | Proliferation with antigen-incubated APC ([1]; T-cell line 165-E9G, B-LCL Donor 5 DRβ1*01/DRβ1*11): 9514 RLU | Proliferation with antigen-incubated APC ([1]; T-cell line 165-E9G, B-LCL Donor 6 DRβ1*1501/DRβ1*13): 1442 RLU | Proliferation with antigen-incubated APC ([1]; T-cell line 165-F5G, B-LCL Donor 3 (Autologous) DRβ1*1501/DRβ1*11): 2862 RLU | Proliferation with antigen-incubated APC ([1]; T-cell line 165-F5G, B-LCL Donor 5 DRβ1*01/DRβ1*11): 3971 RLU | Proliferation with antigen-incubated APC ([1]; T-cell line 165-F5G, B-LCL Donor 6 DRβ1*1501/DRβ1*13): 1424 RLU | Proliferation with antigen-incubated APC ([1]; T-cell line 165-F10G, B-LCL Donor 3 (Autologous) DRβ1*1501/DRβ1*11): 120946 RLU | Proliferation with antigen-incubated APC ([1]; T-cell line 165-F10G, B-LCL Donor 5 DRβ1*01/DRβ1*11): 6221 RLU | Proliferation with antigen-incubated APC ([1]; T-cell line 165-F10G, B-LCL Donor 7 DRβ1*1501/DRβ1*03): 151115 RLU | BrdU uptake ([2]; 206-1A6, control 0.220): 0.563 OD450 | BrdU uptake ([2]; 206-1A7, control 0.329): 0.688 OD450 | BrdU uptake ([2]; 206-1A11, control 0.151): 0.452 OD450 | BrdU uptake ([2]; 206-1C12, control 0.272): 0.626 OD450 | BrdU uptake ([2]; 206-1H1, control 0.109): 0.447 OD450 | BrdU uptake ([2]; 206-1H2, control 0.095): 0.526 OD450 | BrdU uptake ([2]; 206-2A1, control 0.259): 0.548 OD450 | BrdU uptake ([2]; 206-2A10, control 0.162): 0.444 OD450 | BrdU uptake ([2]; 206-2C3, control 0.146): 0.358 OD450 | difference in BrdU uptake from control ([2]; nine Donor 2 lines of Table 17): greater than two-fold | increase in the OD of the GA-stimulated test sample relative to an unstimulated control sample ([2]; nine Donor 2 lines of Table 17): at least 50%
